The values that follow come from patent publication US20070249725A1, “Pharmaceutical formulations of sympathetic antagonist for the treatment of chronic muscle pain” (priority 2006, published 2007).

Data set [1] concerns trigger point. Description: Efficacy and dosage study for intramuscular injection of phenoxybenzamine hydrochloride: subject-reported percent improvement from baseline. It is filed as in vivo, human. As for the experimental part: A total of 326 male and female subjects, approximately 15 to 85 years old with pain of 4-72 month duration were treated with various doses of phenoxybenzamine. If a potential subject had pain that was clearly muscular and clearly not due to arthritis, nerve root compression or other extramuscular cause, the subject was considered a candidate for phenoxybenzamine hydrochloride injection. Trigger points were identified by palpation. A monopolar EMG needle was then inserted into the trigger point. Another monopolar EMG needle was inserted into a nearby nontender fibers of the same muscle. […] The treatment was repeated in up to 10-12 trigger points per treatment session. Subjects could return for up to 6 treatment sessions, depending on the extent of their pain. The initial treatment was with a dose of 25 mg of phenoxybenzamine hydrochloride in an injection volume of 2 ml. […] For 318 subjects, data were available for analysis for the doses of phenoxybenzamine hydrochloride used, efficacy and incidence of serious adverse events.
Subjects were asked to quantify, in terms of percent improvement from baseline, how they felt after treatment.

Data set [2] in a line: pH of phenoxybenzamine formulations. It is filed as physicochemical. To be noted: active solutions. As for the experimental part:
This was a multicenter, randomized, placebo-controlled, double-blind, dose response study of intramuscular phenoxybenzamine hydrochloride (PBZ) versus vehicle and saline placebos. Phenoxybenzamine formulation known in the art (propylene glycol and alcohol) and diluted in saline at the time of injection were evaluated. […] Patients with pain in the most commonly affected regions, the upper and lower back, were studied. Patients enrolled in this study were male or female with 4 months to 8 years of myofascial pain syndrome with identifiable active trigger points. Patients were required to have had EMG documented triggers points and meet the criteria of <10 uV in the adjacent muscle site and have a minimum of a 2:1 ratio of trigger point amplitude: adjacent amplitude. Attempts were made to obtain maximum amplitude in the trigger point.
For determination of the pH value of the active solutions, a 5% solution of the Phenoxybenzamine HCL measured 3.25. Examples of packaging material include 2-mL vials, Pharmatek Lot No. 0001, Part No. PTC-0001; rubber stoppers, Pharmatek Lot No. 0002, Part No. PTC-0002; Truedge® seals, Pharmatek Lot No. 0003, Part No. PTC-0003; Supor® filters, Pharmatek Lot No. 0005, Part No. PTC-0004; and labels, to be generated by PrimaPharm Inc. These can be supplied in the form of a kit.

The nature of data set [3]: Multicenter placebo-controlled dose response study of intramuscular PBZ: safety and tolerance (Example II). To be noted: most frequent adverse event. It is filed as in vivo, human.
The conditions of data set [4]: cited from earlier work.

Structures can show the parent of a compound that is named as a salt.

`CC(COc1ccccc1)N(CCCl)Cc1ccccc1` (stereo not shown) [Phenoxybenzamine Hydrochloride, phenoxybenzamine hydrochloride] yielded a Mean % improvement in data set [1] (3 mg dose, Two month, 178 subjects (Interim data)) of 54.9%. In addition, the “% of Subjects with Greater than 25% Improvement” value in data set [1] (10 mg dose, Four month, 84 subjects) is 63%; in data set [1] (10 mg dose, One month, 84 subjects) it was 52%; in data set [1] (10 mg dose, Three month, 84 subjects), 66%; in data set [1] (10 mg dose, Two month, 84 subjects), 68%; in data set [1] (25 mg dose, Four month, 16 subjects) it was 53%; in data set [1] (25 mg dose, One month, 16 subjects), 57%. For the same molecule, the “% of Subjects with Greater than 25% Improvement” value in data set [1] (25 mg dose, One week, 16 subjects) is on record as 40%; in data set [1] (25 mg dose, Two month, 16 subjects) it was 66%; in data set [1] (10-12.5 mg dose, Four month, 8 subjects) it was 100%; in data set [1] (10-12.5 mg dose, One month, 8 subjects), 50%; in data set [1] (10-12.5 mg dose, Two month, 8 subjects), 83%. Also, the “subjects reported no improvement in pain” value in data set [1] (Example 1, after treatment) is on record as “About 15%”. In data set [2], the “pH of a 5% solution” value was 3.25. Also, the “injection site pain, share of all adverse events” value in data set [3] is reported as 77%. For the same molecule, in data set [4], the “irritation at the site of the injection” value was “irritation of the muscle at the site of the injection can occur”.
